The term inhibition denotes how much of the control response was suppressed. Usually pEC50 stands for the EC50 on a negative log10 scale, so that one unit is a factor of ten. For orientation: CC50 means the concentration that lowers cell viability or growth by half. By pIC50 is commonly meant the IC50 on a negative log10 scale, so that one unit is a factor of ten.

Series [1] relates to Zika virus. Briefly: Antiviral activity against Zika virus PE243 infected in African green monkey Vero E6 cells assessed as inhibition of viral replication at 10 uM incubated for 72 hrs by immunofluorescence analysis. It counts as functional. The note with it: PE243, Vero C1008.
Series [2] has as its system Zika virus. As to the kind of experiment: Antiviral activity against Zika virus PE243 infected in African green monkey Vero E6 cells assessed as inhibition of viral replication at 2 uM incubated for 72 hrs by immunofluorescence analysis. The note with it: PE243, Vero C1008. Type of series: functional.
Series [3] in a line: Cytotoxicity against African green monkey Vero E6 cells assessed as cell viability at 10 uM measured after 72 hrs by MTT assay relative to control. It counts as toxicity, cell-based, Vero C1008. Particulars: chlorocebus sabaeus, read-out: Activity. (Formazan colour is commonly taken as a measure of viable cells.)
A short description of series [4]: Cytotoxicity against African green monkey Vero E6 cells assessed as cell viability at 2 uM measured after 72 hrs by MTT assay relative to control. Type of series: toxicity, cell-based, Vero C1008. Particulars: chlorocebus sabaeus, read-out: Activity.
Series [5] deals with Zika virus. Briefly: Antiviral activity against Zika virus PE243 infected in African green monkey Vero E6 cells assessed as inhibition of viral replication incubated for 72 hrs by immunofluorescence analysis. Particulars: PE243, Vero C1008, 72 h. It counts as functional, organism-based.
Series [6] can be described thus: Cytotoxicity against African green monkey Vero E6 cells assessed as reduction in cell viability measured after 72 hrs by MTT assay. It counts as toxicity, cell-based, Vero C1008. Particulars: chlorocebus sabaeus.
A short description of series [7]: Selectivity index, ratio of CC50 for cytotoxicity against African green monkey Vero E6 cells to EC50 for antiviral activity against Zika virus PE243 infected in African green monkey Vero E6 cells. Particulars: read-out: Ratio CC50/EC50. It counts as toxicity, cell-based, Vero C1008.
In series [8] the test system is Zika virus. Briefly: Inhibition of Zika virus BeH823339 NS2B protease (49 to 95 residues) R96A mutant/NS3 protease (1 to 170 residues) R29G/ C80S/C143S mutant expressed in Escherichia coli BL21 (DE3) cells using Bz-Nle-Lys-Lys-Arg-AMC as a fluorogenic substrate at 100 uM by fluorescence-based analysis relative to control.
Series [9] relates to Zika virus. Briefly: Inhibition of Zika virus BeH823339 NS2B protease (49 to 95 residues) R96A mutant/NS3 protease (1 to 170 residues) R29G/ C80S/C143S mutant expressed in Escherichia coli BL21 (DE3) cells using Bz-Nle-Lys-Lys-Arg-AMC as a fluorogenic substrate at 100 uM preincubated with enzyme for 10 mins by fluorescence-based analysis relative to control.
The test system of series [10] is Zika virus. Briefly: Antiviral activity against Zika virus infected in golden hamster BHK21-RepZIKV_IRES-Neo cells assessed as inhibition of viral replication by measuring reduction in renilla luciferase expression at 10 uM measured after 72 hrs by luciferase reporter gene assay relative to control. Type of series: functional, Mesocricetus auratus. The note with it: BHK-21. Background: Reporter assays use an easily measured gene product as a stand-in for the process of interest.

For series [11], the system named is BHK-21. Briefly: Cytotoxicity against golden hamster BHK21-RepZIKV_IRES-Neo cells assessed as reduction in cell viability measured after 72 hrs by MTT assay. The note with it: bhk-21, 72 h. It counts as toxicity, cell-based, Mesocricetus auratus.
In series [12] the target is Nonstructural protein 3 (Zika virus, UniProt A0A024AXB9). As to the kind of experiment: Inhibition of N-terminal His-tagged Zika virus NS2B protease (46 to 99 residues)/NS3 protease (1 to 187 residues) expressed in Escherichia coli Rosetta2(DE3) cells using Boc-Gly-Arg-Arg-AMC as substrate preincubated with enzyme for 10 mins followed by substrate addition and measured for 10 mins by fluorescence based analysis.

Series [13] in a line: Inhibition of Zika virus BeH823339 NS2B protease (49 to 95 residues) R96A mutant/NS3 protease (1 to 170 residues) R29G/ C80S/C143S mutant expressed in Escherichia coli BL21 (DE3) cells using Bz-Nle-Lys-Lys-Arg-AMC as a fluorogenic substrate preincubated with enzyme for 10 mins by fluorescence-based analysis.
For series [14], the system named is Zika virus. Briefly: Inhibition of Zika virus BeH823339 NS2B protease (49 to 95 residues) R96A mutant/NS3 protease (1 to 170 residues) R29G/ C80S/C143S mutant expressed in Escherichia coli BL21 (DE3) cells using Bz-Nle-Lys-Lys-Arg-AMC as a fluorogenic substrate at 100 uM preincubated with enzyme for 10 mins in presence of 0.001% TritonX-100 by fluorescence-based analysis.

Series [15] relates to Zika virus. As to the kind of experiment: Inhibition of Zika virus BeH823339 NS2B protease (49 to 95 residues) R96A mutant/NS3 protease (1 to 170 residues) R29G/ C80S/C143S mutant expressed in Escherichia coli BL21 (DE3) cells using Bz-Nle-Lys-Lys-Arg-AMC as a fluorogenic substrate at 10 uM preincubated with enzyme for 10 mins in presence of BSA by fluorescence-based analysis relative to control.

The target in series [16] is Cruzipain (Trypanosoma cruzi) (UniProt P25779). Briefly: Inhibition of recombinant Trypanosoma cruzi Cruzain using Z-Phe-Arg-AMC as fluorogenic substrate at 12.5 uM preincubated with enzyme for 10 mins by fluorescence-based analysis relative to control.
Series [17] relates to Zika virus. Briefly: Inhibition of Zika virus BeH823339 NS2B protease (49 to 95 residues) R96A mutant/NS3 protease (1 to 170 residues) R29G/ C80S/C143S mutant expressed in Escherichia coli BL21 (DE3) cells using Bz-Nle-Lys-Lys-Arg-AMC as a fluorogenic substrate at 12.5 uM preincubated with 0.2 nM enzyme for 10 mins by fluorescence-based analysis relative to control.
The subject of series [18] is Zika virus. Briefly: Inhibition of Zika virus BeH823339 NS2B protease (49 to 95 residues) R96A mutant/NS3 protease (1 to 170 residues) R29G/ C80S/C143S mutant expressed in Escherichia coli BL21 (DE3) cells using Bz-Nle-Lys-Lys-Arg-AMC as a fluorogenic substrate at 12.5 uM preincubated with 2 nM enzyme for 10 mins by fluorescence-based analysis relative to control.
The test system of series [19] is Zika virus. Briefly: Non-competitive inhibition of Zika virus BeH823339 NS2B protease (49 to 95 residues) R96A mutant/NS3 protease (1 to 170 residues) R29G/ C80S/C143S mutant expressed in Escherichia coli BL21 (DE3) cells using 5.5 to 88 uM of Bz-Nle-Lys-Lys-Arg-AMC as a fluorogenic substrate at compound concentration close to IC50 preincubated with enzyme for 10 mins by fluorescence-based analysis relative to control.

Series [20] has as its system Zika virus. As to the kind of experiment: Inhibition of Zika virus BeH823339 NS2B protease (49 to 95 residues) R96A mutant/NS3 protease (1 to 170 residues) R29G/ C80S/C143S mutant expressed in Escherichia coli BL21 (DE3) cells using Bz-Nle-Lys-Lys-Arg-AMC as a fluorogenic substrate at 25 uM preincubated with enzyme for 10 mins in presence of BSA by fluorescence-based analysis relative to control.

Series [21] relates to Zika virus. As to the kind of experiment: Inhibition of Zika virus BeH823339 NS2B protease (49 to 95 residues) R96A mutant/NS3 protease (1 to 170 residues) R29G/ C80S/C143S mutant expressed in Escherichia coli BL21 (DE3) cells using Bz-Nle-Lys-Lys-Arg-AMC as a fluorogenic substrate at 25 uM preincubated with 0.2 nM enzyme for 10 mins by fluorescence-based analysis relative to control.

In series [22] the test system is Zika virus. Briefly: Inhibition of Zika virus BeH823339 NS2B protease (49 to 95 residues) R96A mutant/NS3 protease (1 to 170 residues) R29G/ C80S/C143S mutant expressed in Escherichia coli BL21 (DE3) cells using Bz-Nle-Lys-Lys-Arg-AMC as a fluorogenic substrate at 25 uM preincubated with 2 nM enzyme for 10 mins by fluorescence-based analysis relative to control.

Series [23] deals with Cruzipain (Trypanosoma cruzi) (UniProt P25779). Briefly: Inhibition of recombinant Trypanosoma cruzi Cruzain using Z-Phe-Arg-AMC as fluorogenic substrate at 25 uM preincubated with enzyme for 10 mins by fluorescence-based analysis relative to control.
Series [24] concerns Zika virus. Briefly: Inhibition of Zika virus BeH823339 NS2B protease (49 to 95 residues) R96A mutant/NS3 protease (1 to 170 residues) R29G/ C80S/C143S mutant expressed in Escherichia coli BL21 (DE3) cells using Bz-Nle-Lys-Lys-Arg-AMC as a fluorogenic substrate at 50 uM preincubated with 2 nM enzyme for 10 mins by fluorescence-based analysis relative to control.
The subject of series [25] is Zika virus. As to the kind of experiment: Inhibition of Zika virus BeH823339 NS2B protease (49 to 95 residues) R96A mutant/NS3 protease (1 to 170 residues) R29G/ C80S/C143S mutant expressed in Escherichia coli BL21 (DE3) cells using Bz-Nle-Lys-Lys-Arg-AMC as a fluorogenic substrate at 50 uM preincubated with enzyme for 10 mins in presence of BSA by fluorescence-based analysis relative to control.

Series [26] has as its system Zika virus. Briefly: Inhibition of Zika virus BeH823339 NS2B protease (49 to 95 residues) R96A mutant/NS3 protease (1 to 170 residues) R29G/ C80S/C143S mutant expressed in Escherichia coli BL21 (DE3) cells using Bz-Nle-Lys-Lys-Arg-AMC as a fluorogenic substrate at 50 uM preincubated with 0.2 nM enzyme for 10 mins by fluorescence-based analysis relative to control.
In series [27] the target is Cruzipain (Trypanosoma cruzi) (UniProt P25779). Briefly: Inhibition of recombinant Trypanosoma cruzi Cruzain using Z-Phe-Arg-AMC as fluorogenic substrate at 50 uM preincubated with enzyme for 10 mins by fluorescence-based analysis relative to control.

pEC50, pIC50: −log10 of the molar value.

Sequence of Cruzipain (Trypanosoma cruzi) (P25779 123-467 limits assumed): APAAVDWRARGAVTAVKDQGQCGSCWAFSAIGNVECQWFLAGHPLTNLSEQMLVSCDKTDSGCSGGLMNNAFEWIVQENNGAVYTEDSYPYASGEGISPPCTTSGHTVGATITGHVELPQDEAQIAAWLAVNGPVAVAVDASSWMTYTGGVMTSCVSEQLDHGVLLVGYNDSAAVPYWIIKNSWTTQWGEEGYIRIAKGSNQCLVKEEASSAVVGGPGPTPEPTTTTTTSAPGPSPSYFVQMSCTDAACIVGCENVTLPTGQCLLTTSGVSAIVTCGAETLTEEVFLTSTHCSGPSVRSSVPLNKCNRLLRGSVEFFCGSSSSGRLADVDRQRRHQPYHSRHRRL
Sequence of Nonstructural protein 3 (A0A024AXB9 whole entry, the tested form may be a part): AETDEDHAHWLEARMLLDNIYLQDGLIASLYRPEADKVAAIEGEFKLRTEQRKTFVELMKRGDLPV

Consider `COc1ccc(S(=O)(=O)Nc2ccc(C(=O)Nc3nc4ccccc4s3)cc2)cc1`, for which the inhibition at 10 µM in [1] amounted to 74.4%; in series [10] it was 63.4%. For the same compound, the inhibition at 2 µM in series [2] came out at 10.8%. Moreover, the viability at 72 h, 10 µM in [3] was determined as 94.8%. The viability at 72 h, 2 µM in [4] was determined as 88.7%. In series [5], the negative-log EC50 (pEC50) is 4.95. The CC50 at 72 h in [6] was 13.3 µM. In addition, the selectivity ratio in series [7] is 1.2. Also, the inhibition in series [8] was 38%; in series [9], 32%. The Activity entry in series [11] was “Non-Toxic”. The same compound showed a negative-log IC50 (pIC50) in [12] of 5.28.

On to `O=C(Nc1nc2ccccc2s1)c1ccc(NC(=S)Nc2ccccc2)cc1`, for which the inhibition at 10 µM in series [1] amounted to 73.6%. Further, the inhibition at 2 µM in series [2] was 9.4%. In addition, in series [3], the viability at 72 h, 10 µM came out at 29%. For the same compound, the viability at 72 h, 2 µM in series [4] was determined as 96%. In addition, the inhibition amounted to 46% in [8]; 99% in series [9]; 46% in series [14]; 12% in series [15]; 72% in series [16]; 15% in [17]. The inhibition in series [18] was found to be 9%; in [19], 25%. In addition, the negative logarithm of the IC50 (pIC50) in series [13] was 5.10.

Take `COc1ccc(OC)c(S(=O)(=O)NCC(=O)Nc2nc3ccccc3s2)c1`: the inhibition at 10 µM in series [1] came out at 7.9%. Further, the inhibition at 2 µM in series [2] is 8.3%. Besides, the viability at 72 h, 10 µM in [3] is 102%. In series [4], the viability at 72 h, 2 µM turned out to be 112%. Besides, the inhibition in series [8] worked out at 51%; in [9], 93%; in series [14], 12%; in series [20] it was 11%; in [21], 28%; in [22], 12%. Also, the inhibition in [23] came out at 3%. In addition, the pIC50 in series [13] is 4.62.

Consider `COc1ccc(S(=O)(=O)Nc2ccccc2C(=O)Nc2nc3ccccc3s2)cc1`, for which the inhibition at 10 µM in series [1] amounted to 1%. For the same compound, the inhibition at 2 µM in series [2] worked out at 5.4%. In addition, the viability at 72 h, 10 µM in series [3] was 104%. In [4], the viability at 72 h, 2 µM is 98.5%. In addition, the inhibition stood at 92% in series [8]; 100% in series [9]; 53% in series [14]; 25% in series [24]; 20% in [25]; 39% in [26]. In series [27], the inhibition worked out at 96%. Besides, the pIC50 in series [13] is 4.62.

For the compound `COc1ccc(S(=O)(=O)Nc2ccccc2C(=O)Nc2nccs2)cc1`, the inhibition at 10 µM in series [1] was 100%; in series [10] it was 75.5%. In addition, the inhibition at 2 µM in [2] is 68.6%. Further, the viability at 72 h, 10 µM in series [3] came out at 34.8%. Besides, the viability at 72 h, 2 µM in series [4] came to 36.2%. The pEC50 in series [5] is 5.30. Also, the CC50 at 72 h in [6] stood at 38.7 µM. In [7], the selectivity ratio is 7.7. Besides, the inhibition is 62% in series [8]; 100% in [9]; 24% in series [14]; 5% in [20]; 43% in [21]; 20% in [22]. In addition, in series [23], the inhibition stood at 20%. Further, the pIC50 in series [13] is 4.59. Moreover, the Activity result in series [11] is “Non-Toxic”.

(Values after ChEMBL document CHEMBL5390225, “Discovery and structural optimization of a new series of N-acyl-2-aminobenzothiazole as inhibitors of Zika virus” (Bioorg Med Chem, 2023).)
